These are literature values, as cited in patent publication US20170266323A1, “NEAR-INFRARED-II FLUORESCENT AGENTS, METHODS OF MAKING NEAR-INFRARED-II FLUORESCENT AGENTS, AND METHODS OF USING WATER-SOLUBLE NIR-II FLUORESCENT AGENTS” (The Board of Trustees of the Leland Stanford Junior …, priority 2013, published 2017).

The conditions of data set [1]: in DCM, rhodamine B in ethanol as reference, reported by one study.

Molecules are shown by their SMILES.

Turning to `ClC1=C(C=Cc2cc(-c3ccccc3)[s+]c(-c3ccccc3)c2)CCCC1=CC=C1C=C(c2ccccc2)SC(c2ccccc2)=C1.F[B-](F)(F)F` [IR-1061, 4-[2-[2-Chloro-3-[(2,6-diphenyl-4H-thiopyran-4-ylidene)ethylidene]-1-cyclohexen-1-yl]ethenyl]-2,6-diphenylthiopyrylium tetrafluoroborate], the solubility in water result is on record as “water insoluble”. In addition, the fluorescence quantum efficiency in data set [1] was around 1.7±0.5%.
